What was measured:
Assay in all cases: relative viability (nuclei count vs DMSO), 5 days (fraction); higher = more cells survive
TPCA-1 + Decitabine = compound: C1=CC(=CC=C1C2=CC(=C(S2)NC(=O)N)C(=O)N)F [TPCA-1] + Nc1ncn([C@H]2C[C@H](O)[C@@H](CO)O2)c(=O)n1 [Decitabine] (partner 2 µM)
Outline: (§1)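 Lung cancer cell lines in 1536-well plates got either a single drug or a fixed anchor-drug dose together with five library-drug doses (not always all listed) in √10 steps, by pin tool, on the day after seeding. Nuclei were counted after 5 days, and relative viability is the treated-to-vehicle ratio of nuclei counts. Values are medians of duplicate plates.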

Lestaurtinib + Alpelisib = compound: C[C@]12O[C@H](C[C@]1(O)CO)n1c3ccccc3c3c4c(c5c6ccccc6n2c5c31)CNC4=O [Lestaurtinib] + Cc1nc(NC(=O)N2CCC[C@H]2C(N)=O)sc1-c1ccnc(C(C)(C)C(F)(F)F)c1 [Alpelisib] (partner 2 µM)
Outline: as §1

TPCA-1 + Foretinib = compound: C1=CC(=CC=C1C2=CC(=C(S2)NC(=O)N)C(=O)N)F [TPCA-1] + COc1cc2c(Oc3ccc(NC(=O)C4(C(=O)Nc5ccc(F)cc5)CC4)cc3F)ccnc2cc1OCCCN1CCOCC1 [Foretinib] (partner 0.25 µM)
Outline: as §1

[1] = compound: C1/C(=C\C2=CC=CS2)/C(=O)/C(=C/C3=CC=CS3)/C1 + C[C@]1(O)C[C@@H](c2nc(-c3ccc4ccc(-c5ccccc5)nc4c3)c3c(N)nccn32)C1 [Linsitinib] (partner 1 µM)
Outline: as §1

Row | Cell Line | relative viability (TPCA-1 + Decitabine; first compound 0.04 µM) | relative viability (TPCA-1 + Decitabine; first compound 0.1265 µM) | relative viability (TPCA-1 + Decitabine; first compound 0.4 µM) | relative viability (TPCA-1 + Decitabine; first compound 1.265 µM) | relative viability (TPCA-1 + Decitabine; first compound 4 µM) | relative viability (Lestaurtinib + Alpelisib; first compound 0.005 µM) | relative viability (Lestaurtinib + Alpelisib; first compound 0.01581 µM) | relative viability (Lestaurtinib + Alpelisib; first compound 0.05 µM) | relative viability (Lestaurtinib + Alpelisib; first compound 0.1581 µM) | relative viability (Lestaurtinib + Alpelisib; first compound 0.5 µM) | relative viability (TPCA-1 + Foretinib; first compound 0.04 µM) | relative viability (TPCA-1 + Foretinib; first compound 0.1265 µM) | relative viability (TPCA-1 + Foretinib; first compound 0.4 µM) | relative viability (TPCA-1 + Foretinib; first compound 1.265 µM) | relative viability (TPCA-1 + Foretinib; first compound 4 µM) | relative viability ([1]; first compound 0.2 µM) | relative viability ([1]; first compound 0.6325 µM) | relative viability ([1]; first compound 2 µM) | relative viability ([1]; first compound 6.325 µM) | relative viability ([1]; first compound 20 µM)
1 | HOP-62 | 0.261 | 0.198 | 0.215 | 0.198 | 0.214 | 1.05 | 0.919 | 1.17 | 0.775 | 0.436 | 1.19 | 1.09 | 1.17 | 1.06 | 1.06 | 1.09 | 0.879 | 0.853 | 0.982 | 0.815
2 | HCC-366 |  | 0.285 | 0.361 | 0.271 | 0.322 | 0.477 | 0.438 | 0.388 | 0.287 | 0.209 | 0.921 | 0.86 | 0.922 | 0.851 | 0.654 | 0.701 | 0.574 | 0.647 | 0.467 | 0.6
3 | NCI-H2347 | 0.578 | 0.551 | 0.664 | 0.641 | 0.619 | 1.1 | 1.22 | 0.91 | 0.573 | 0.606 | 1.03 |  | 1.16 | 0.551 | 0.782 | 0.918 | 0.953 | 0.922 | 0.891 | 0.938
4 | A549 | 0.219 | 0.423 | 0.284 | 0.182 | 0.102 | 0.802 | 0.638 | 0.518 | 0.263 | 0.0616 | 0.989 | 1.03 | 0.947 | 0.826 | 0.764 | 0.636 | 0.556 | 0.628 | 0.516 | 0.567
5 | LXF-289 | 0.384 | 0.345 | 0.395 | 0.403 | 0.34 | 1.05 | 1.09 | 0.695 | 0.91 | 0.178 | 0.972 | 0.966 | 0.89 | 0.981 | 0.692 | 0.981 | 1.03 | 0.922 | 0.912 | 0.984
6 | NCI-H1793 | 0.495 | 0.429 | 0.492 | 0.451 | 0.384 | 0.874 | 0.761 | 0.588 | 0.546 | 0.494 | 0.72 |  | 0.647 | 0.559 | 0.263 | 0.815 | 0.855 | 0.913 | 0.855 | 0.685
7 | LU99A | 0.923 | 0.76 | 0.901 | 0.834 | 0.377 | 0.413 | 0.488 | 0.233 | 0.283 | 0.192 | 0.917 | 0.745 | 0.78 | 0.636 | 0.436 | 0.535 | 0.497 | 0.574 | 0.353 | 0.61
8 | PC-14 | 0.265 | 0.24 | 0.231 | 0.255 | 0.323 | 0.973 | 1.01 | 0.465 | 0.602 | 0.471 | 1.01 | 0.916 | 0.957 | 1.01 | 0.79 | 0.96 | 0.919 | 0.922 | 0.829 | 0.981
9 | NCI-H2085 |  | 0.531 | 0.618 | 0.579 | 0.665 | 1.05 | 1.11 | 1.06 | 1.01 | 0.843 | 0.846 | 0.79 | 1.2 | 0.882 | 0.742 | 1.05 | 0.941 | 0.805 | 0.797 | 1.05
10 | HCC-78 | 0.788 | 0.698 | 0.565 | 0.711 | 0.529 | 0.349 | 0.328 | 0.334 | 0.246 | 0.226 | 0.611 | 0.52 | 0.608 | 0.65 | 0.541 | 0.649 | 0.554 | 0.57 | 0.535 | 0.496
11 | NCI-H1395 | 0.791 | 0.694 | 0.753 | 0.797 | 0.695 | 1.15 | 1.14 | 0.795 | 0.813 | 0.483 | 1.05 | 1.01 | 0.975 | 0.96 | 0.823 | 1.12 | 1.06 | 1.29 | 0.89 | 1.05
12 | NCI-H2126 | 0.582 | 0.577 | 0.632 | 0.614 | 0.514 | 0.785 | 0.746 | 0.608 | 0.681 | 0.478 | 1.25 | 0.721 | 1.16 | 1.06 | 1 | 0.673 | 0.698 | 0.754 | 0.553 | 0.709
13 | H3255 | 0.71 | 0.553 | 0.676 | 0.513 | 0.475 | 0.686 | 0.739 | 0.541 | 0.385 | 0.296 | 0.825 | 0.876 | 0.821 | 0.541 | 0.514 | 0.949 | 0.92 | 0.909 | 0.728 | 0.913
14 | HCC-15 | 0.731 | 0.546 | 0.708 | 0.625 | 0.374 | 1.02 | 1.06 | 0.819 | 0.583 | 0.161 | 1.09 | 0.919 | 1.06 | 0.96 | 0.77 | 0.899 | 0.921 | 0.846 | 0.734 | 0.888
15 | NCI-H661 | 0.533 | 0.58 | 0.597 | 0.602 | 0.436 | 0.618 | 0.953 | 0.495 | 0.477 | 0.406 | 1.08 | 1.03 | 1.06 | 0.96 | 0.888 | 0.692 | 0.465 | 0.508 | 0.559 | 0.48
16 | NCI-H2009 | 0.412 | 0.392 | 0.377 | 0.423 | 0.392 | 1.27 | 1.12 | 0.971 | 1.05 | 0.673 | 1.24 | 1.21 | 1.22 | 1.28 | 1.18 | 1.28 | 1.2 | 1.15 | 0.712 | 1.13
17 | COR-L23 | 0.498 | 0.394 | 0.466 | 0.385 | 0.403 | 0.716 | 0.702 |  | 0.478 | 0.192 | 1.11 | 0.884 | 1.05 | 0.916 | 0.803 | 0.981 | 0.921 | 0.875 | 0.838 | 0.887
18 | EMC-BAC-2 | 0.997 | 0.972 | 0.939 | 0.852 | 0.898 | 0.786 | 0.76 | 0.541 | 0.398 | 0.216 | 1.02 | 0.956 | 1.05 | 1.14 | 0.887 | 0.811 | 0.787 | 0.84 | 0.761 | 0.792
19 | LCLC-103H | 0.716 | 0.719 | 0.772 | 0.788 | 0.811 | 1.06 | 0.991 | 0.678 | 0.683 | 0.651 | 0.899 | 0.813 | 0.758 | 0.839 | 0.64 | 1.12 | 1.16 | 1.15 | 0.975 | 0.995
20 | LK-2 | 0.347 | 0.21 | 0.331 | 0.27 | 0.175 | 1.37 | 0.97 | 1.01 | 0.647 | 0.365 | 1.5 | 0.969 | 1.14 | 1.14 | 0.729 | 0.641 | 0.857 | 0.633 | 0.583 | 0.59
21 | SW 1573 | 0.621 | 0.402 | 0.438 | 0.677 | 0.395 | 0.822 | 0.841 | 0.401 | 0.568 | 0.379 | 0.6 | 0.811 | 1.03 | 0.964 | 0.866 | 0.765 | 0.839 | 0.959 | 0.744 | 0.829
22 | NCI-H2405 | 0.823 | 0.664 | 0.748 | 0.712 | 0.717 | 0.842 | 0.643 | 0.488 | 0.367 | 0.258 | 1.03 | 1.05 | 1.11 | 0.991 | 1.03 | 0.992 | 1.09 | 1.03 | 0.803 | 1.01
23 | NCI-H2087 | 0.255 | 0.222 | 0.311 | 0.335 | 0.152 | 1.15 | 1.08 | 0.83 | 0.783 | 0.325 | 1.52 | 0.99 | 1.09 | 0.894 | 0.432 | 1.06 | 1.05 | 0.928 | 0.678 | 0.936
24 | NCI-H460 | 0.521 | 0.461 |  | 0.453 | 0.476 | 0.477 | 0.406 | 0.222 | 0.198 | 0.0751 | 1.05 | 0.918 | 1.07 | 1.05 | 0.857 | 0.838 | 0.976 | 0.694 |  | 0.728
25 | LOU-NH91 | 0.835 | 0.749 | 0.793 | 0.792 | 0.776 | 0.757 | 0.666 | 0.623 | 0.472 | 0.416 | 0.984 | 0.887 | 0.971 | 0.97 | 0.803 | 1 | 0.898 | 1.03 | 0.806 | 1.02
26 | NCI-H1651 | 0.66 | 0.578 | 0.578 | 0.546 | 0.217 | 1.1 | 0.889 | 0.913 | 0.845 | 0.529 | 0.862 | 0.656 | 0.801 | 0.794 | 0.735 | 1.11 | 1.06 | 0.92 |  | 1.05
27 | NCI-H441 | 0.252 | 0.247 | 0.229 | 0.48 | 0.239 | 0.584 | 0.687 | 0.416 | 0.421 | 0.289 | 0.487 | 0.856 | 0.841 | 0.834 | 0.668 | 0.627 | 0.692 | 0.664 | 0.547 | 0.583

— the supplement of paper PMC10307832
